Tested on: S protein monomer
Assay: MST binding to RED labelled S protein monomer in 50% negative human serum (FIGS. 4, 7, 8, 10, 12)
Design: species or system SARS-CoV-2
Settings: 20 nM S protein monomer, ligand 0.5 µM - 0.2 nM arbitrary units, PBS 0.05% Tween 20, 50% negative human serum

Row | SMILES | binding to S protein monomer detected by MST
1 | Cn1c(=O)c2c(ncn2C)n(C)c1=O [Coffein, caffeine] | A binding could be detected
2 | O=C[C@H](O)[C@@H](O)[C@@H](O)[C@H](O)CO [D+Galactose, D-Galactose] | A binding could be detected
3 | O=C[C@H](O)[C@@H](O)[C@@H](O)CO [L+Arabinose, L-Arabinose] | No binding could be detected

Reference: patent publication US20230346824A1, “MEANS AND METHODS OF PREVENTING AND TREATING INFECTIONS” (SolyPlus GmbH, priority 2020, published 2023)
